Data reported in PubChem BioAssay (NCI).
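Protocol summary: plate cells (96-well), add compound at 5 concentrations, incubate 48 h, interpolate endpoints linearly. TGI marks complete inhibition of growth.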

Tests used:
Assay in all cases: DTP human tumour cell line panel, 48 h
786-0 renal = tested on: 786-0 renal
A498 renal = tested on: A498 renal
A549 NSCLC = tested on: A549 NSCLC
ACHN renal = tested on: ACHN renal
CAKI-1 renal = tested on: CAKI-1 renal
COLO 205 colon = tested on: COLO 205 colon
DLD-1 colon = tested on: DLD-1 colon
DMS 114 small cell lung = tested on: DMS 114 small cell lung
DMS 273 small cell lung = tested on: DMS 273 small cell lung
EKVX NSCLC = tested on: EKVX NSCLC
HCC-2998 colon = tested on: HCC-2998 colon
HCT-116 colon = tested on: HCT-116 colon
HCT-15 colon = tested on: HCT-15 colon
HOP-18 NSCLC = tested on: HOP-18 NSCLC
HOP-62 NSCLC = tested on: HOP-62 NSCLC
HOP-92 NSCLC = tested on: HOP-92 NSCLC
HT29 colon = tested on: HT29 colon
IGROV1 ovarian = tested on: IGROV1 ovarian
KM12 colon = tested on: KM12 colon
KM20L2 colon = tested on: KM20L2 colon
LXFL 529 NSCLC = tested on: LXFL 529 NSCLC
M14 melanoma = tested on: M14 melanoma
M19-MEL melanoma = tested on: M19-MEL melanoma
MALME-3M melanoma = tested on: MALME-3M melanoma
NCI-H226 lung = tested on: NCI-H226 lung
NCI-H23 lung = tested on: NCI-H23 lung
NCI-H460 lung = tested on: NCI-H460 lung
OVCAR-3 ovarian = tested on: OVCAR-3 ovarian
OVCAR-4 ovarian = tested on: OVCAR-4 ovarian
OVCAR-5 ovarian = tested on: OVCAR-5 ovarian
OVCAR-8 ovarian = tested on: OVCAR-8 ovarian
RPMI-8226 leukemia = tested on: RPMI-8226 leukemia
RXF 393 renal = tested on: RXF 393 renal
SF-268 CNS = tested on: SF-268 CNS
SF-295 CNS = tested on: SF-295 CNS
SF-539 CNS = tested on: SF-539 CNS
SK-MEL-2 melanoma = tested on: SK-MEL-2 melanoma
SK-MEL-28 melanoma = tested on: SK-MEL-28 melanoma
SK-OV-3 ovarian = tested on: SK-OV-3 ovarian
SN12C renal = tested on: SN12C renal
SNB-19 CNS = tested on: SNB-19 CNS
SNB-75 CNS = tested on: SNB-75 CNS
SNB-78 CNS = tested on: SNB-78 CNS
SW-620 colon = tested on: SW-620 colon
U251 CNS = tested on: U251 CNS
UACC-257 melanoma = tested on: UACC-257 melanoma
UACC-62 melanoma = tested on: UACC-62 melanoma
UO-31 renal = tested on: UO-31 renal
CCRF-CEM leukemia = tested on: CCRF-CEM leukemia
HL-60(TB) leukemia = tested on: HL-60(TB) leukemia
K-562 leukemia = tested on: K-562 leukemia
LOX IMVI melanoma = tested on: LOX IMVI melanoma
MOLT-4 leukemia = tested on: MOLT-4 leukemia
NCI-H522 lung = tested on: NCI-H522 lung
SK-MEL-5 melanoma = tested on: SK-MEL-5 melanoma
SR leukemia = tested on: SR leukemia
TK-10 renal = tested on: TK-10 renal

Compound `Cc1ccc(NC(=O)OCC(COc2ccc(Cl)cc2Cl)OC(=O)Nc2ccc(C)cc2)cc1` (stereo not given) has a TGI (786-0 renal) greater than 100 µM, a TGI (A498 renal) greater than 100 µM and a TGI (A549 NSCLC) greater than 100 µM. For the same compound, the TGI (ACHN renal) was greater than 100 µM, the TGI (CAKI-1 renal) was greater than 100 µM and the TGI (COLO 205 colon) was greater than 100 µM. The TGI (DLD-1 colon) was greater than 100 µM, the TGI (DMS 114 small cell lung) was greater than 100 µM and the TGI (DMS 273 small cell lung) was greater than 100 µM. It also gave a TGI (EKVX NSCLC) greater than 100 µM, a TGI (HCC-2998 colon) greater than 100 µM and a TGI (HCT-116 colon) greater than 100 µM. It also gave a TGI (HCT-15 colon) greater than 100 µM, a TGI (HOP-18 NSCLC) greater than 100 µM and a TGI (HOP-62 NSCLC) greater than 100 µM. The TGI (HOP-92 NSCLC) was greater than 100 µM, the TGI (HT29 colon) was greater than 100 µM and the TGI (IGROV1 ovarian) was greater than 100 µM. For the same compound, the TGI (KM12 colon) was greater than 100 µM, the TGI (KM20L2 colon) was greater than 100 µM and the TGI (LXFL 529 NSCLC) was greater than 100 µM. It also gave a TGI (M14 melanoma) greater than 100 µM, a TGI (M19-MEL melanoma) greater than 100 µM and a TGI (MALME-3M melanoma) greater than 100 µM. It also gave a TGI (NCI-H226 lung) greater than 100 µM, a TGI (NCI-H23 lung) greater than 100 µM and a TGI (NCI-H460 lung) greater than 100 µM. It also gave a TGI (OVCAR-3 ovarian) greater than 100 µM, a TGI (OVCAR-4 ovarian) greater than 100 µM and a TGI (OVCAR-5 ovarian) greater than 100 µM. For the same compound, the TGI (OVCAR-8 ovarian) was 39.3 µM, the TGI (RPMI-8226 leukemia) was greater than 100 µM and the TGI (RXF 393 renal) was greater than 100 µM. The TGI (SF-268 CNS) was greater than 100 µM, the TGI (SF-295 CNS) was greater than 100 µM and the TGI (SF-539 CNS) was greater than 100 µM. The TGI (SK-MEL-2 melanoma) was greater than 100 µM, the TGI (SK-MEL-28 melanoma) was greater than 100 µM and the TGI (SK-OV-3 ovarian) was greater than 100 µM. For the same compound, the TGI (SN12C renal) was greater than 100 µM, the TGI (SNB-19 CNS) was greater than 100 µM and the TGI (SNB-75 CNS) was 68.2 µM. It also gave a TGI (SNB-78 CNS) greater than 100 µM, a TGI (SW-620 colon) greater than 100 µM and a TGI (U251 CNS) greater than 100 µM. It also gave a TGI (UACC-257 melanoma) greater than 100 µM, a TGI (UACC-62 melanoma) greater than 100 µM and a TGI (UO-31 renal) greater than 100 µM.

For `COC(=O)C1C=CCON2CCc3c(n(S(=O)(=O)c4ccccc4)c4ccccc34)C12` (stereo not given), the TGI (786-0 renal) was greater than 100 µM, the TGI (A498 renal) was greater than 100 µM and the TGI (A549 NSCLC) was greater than 100 µM. The TGI (ACHN renal) was greater than 100 µM, the TGI (CAKI-1 renal) was 98.7 µM and the TGI (CCRF-CEM leukemia) was greater than 71.1 µM. It also gave a TGI (COLO 205 colon) greater than 68.9 µM, a TGI (DLD-1 colon) greater than 22.8 µM and a TGI (DMS 114 small cell lung) greater than 87.7 µM. The TGI (DMS 273 small cell lung) was greater than 66.2 µM, the TGI (EKVX NSCLC) was greater than 84.8 µM and the TGI (HCC-2998 colon) was greater than 100 µM. It also gave a TGI (HCT-116 colon) greater than 80.7 µM, a TGI (HCT-15 colon) greater than 72.9 µM and a TGI (HL-60(TB) leukemia) greater than 67.2 µM. It also gave a TGI (HOP-18 NSCLC) greater than 100 µM, a TGI (HOP-62 NSCLC) greater than 55.5 µM and a TGI (HOP-92 NSCLC) greater than 100 µM. For the same compound, the TGI (HT29 colon) was greater than 100 µM, the TGI (IGROV1 ovarian) was greater than 68.2 µM and the TGI (K-562 leukemia) was greater than 60.9 µM. The TGI (KM12 colon) was greater than 55.6 µM, the TGI (KM20L2 colon) was greater than 63.2 µM and the TGI (LOX IMVI melanoma) was greater than 60.9 µM. It also gave a TGI (LXFL 529 NSCLC) greater than 100 µM, a TGI (M14 melanoma) greater than 100 µM and a TGI (M19-MEL melanoma) greater than 70.5 µM. For the same compound, the TGI (MALME-3M melanoma) was greater than 100 µM, the TGI (MOLT-4 leukemia) was greater than 71 µM and the TGI (NCI-H226 lung) was greater than 91.1 µM. The TGI (NCI-H23 lung) was greater than 100 µM, the TGI (NCI-H460 lung) was greater than 92.3 µM and the TGI (NCI-H522 lung) was greater than 62.5 µM. For the same compound, the TGI (OVCAR-3 ovarian) was greater than 100 µM, the TGI (OVCAR-4 ovarian) was greater than 31.6 µM and the TGI (OVCAR-5 ovarian) was greater than 100 µM. The TGI (OVCAR-8 ovarian) was greater than 100 µM, the TGI (RPMI-8226 leukemia) was greater than 36 µM and the TGI (RXF 393 renal) was greater than 100 µM. The TGI (SF-268 CNS) was greater than 100 µM, the TGI (SF-295 CNS) was greater than 100 µM and the TGI (SF-539 CNS) was greater than 16.2 µM. For the same compound, the TGI (SK-MEL-2 melanoma) was greater than 100 µM, the TGI (SK-MEL-28 melanoma) was greater than 100 µM and the TGI (SK-MEL-5 melanoma) was greater than 58.4 µM. It also gave a TGI (SK-OV-3 ovarian) greater than 85.7 µM, a TGI (SN12C renal) greater than 100 µM and a TGI (SNB-19 CNS) greater than 77.7 µM. For the same compound, the TGI (SNB-75 CNS) was greater than 100 µM, the TGI (SNB-78 CNS) was greater than 100 µM and the TGI (SR leukemia) was greater than 100 µM. It also gave a TGI (SW-620 colon) greater than 34.3 µM, a TGI (TK-10 renal) greater than 100 µM and a TGI (U251 CNS) greater than 42.1 µM. The TGI (UACC-257 melanoma) was greater than 90.3 µM, the TGI (UACC-62 melanoma) was greater than 62.5 µM and the TGI (UO-31 renal) was greater than 100 µM.
